Experimental data published in patent US9976165B2, “Methods for increasing molecular diversity of polyketides and non-ribosomal proteins” (Isomerase Therapeutics Limited, priority 2013, dated 2018).
pIC50, pKi: −log10 of the molar value.

Columns and labels:
[1] = Murine PLP T cell proliferation assay (PLP assay); format: cell-based; conditions: Mus musculus, off-target (mTOR-driven) immunosuppressive potency
FKBP12 = FKBP12 (Homo sapiens, UniProt P62942); test: FKBP12 PPIase assay (inhibition of peptidyl-prolyl isomerase activity); format: biochemical; conditions: 6 concentrations in duplicate, data fitted to a Ki curve
Chain of FKBP12 (P62942 whole entry, species assumed): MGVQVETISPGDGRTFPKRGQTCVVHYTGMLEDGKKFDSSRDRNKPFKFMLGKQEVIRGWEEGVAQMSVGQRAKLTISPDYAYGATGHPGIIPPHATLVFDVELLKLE

Row | pKi (FKBP12) | Structure (SMILES) | pIC50 [1]
1 |  | CO[C@H]1C[C@@H]2CC[C@@H](C)[C@@](O)(O2)C(=O)C(=O)N2CCCC[C@H]2C(=O)OC([C@H](C)C[C@H]2CC[C@H](O)CC2)C[C@@H](O)CC(=O)[C@H](C)CC[C@H](C)/C=C/C=C/C=C/1C (stereo partly drawn) [Compound 4] | 5.35
2 | 6.74 | CO[C@H]1C[C@@H]2CC[C@@H](C)[C@](O)(CC(=O)N3CCCC[C@H]3C(=O)OC([C@H](C)C[C@@H]3CC[C@@H](O)[C@H](O)C3)C/C=C(\C)[C@@H](O)CC(=O)[C@H](C)CC[C@H](C)/C=C/C=C/C=C/1C)O2 (stereo partly drawn) [Compound 9] | 
3 | 7.02 | CO[C@H]1C[C@@H]2CC[C@@H](C)[C@@](O)(O2)C(=O)C(=O)N2CCCC[C@H]2C(=O)O[C@H](/C(C)=C/C[C@H](O)[C@H](C)C[C@H]2CC[C@H](O)CC2)CC(=O)[C@H](C)C[C@H](C)/C=C/C=C/C=C/1C [Compound 21] | 
